Assays:
[1] = Rate of dissolution in H2O at 25° C. of rebaudioside A polymorph and amorphous forms; assay type: physicochemical
[2] = assay type: physicochemical
Description: A solution of rebaudioside A (>97% pure by HPLC ) was prepared in double distilled water (12.5 gm in 50 mL, 25% concentration) by stirring the mixture at 40° C. for 5 minutes. An amorphous form of rebaudioside A was formed by immediately using the clear solution for spray drying with the Lab-Plant spray drier SD-04 instrument (Lab-Plant Ltd., West Yorkshire, U.K.). The solution was fed through the feed pump into the nozzle atomizer which atomized it into a spray of droplets with the help of a constant flow of nitrogen/air. […] This dry powder (11-12 g, H2O6.74%) was discharged continuously from the drying chamber and was collected in a bottle.

[3] = Sensory evaluation of sweetness linger and sugar-like taste by expert panel; assay type: in vivo; design: key: 0=no sweetness linger; 1=very slight sweetness linger; 2=slight sweetness linger; 3=moderate sweetness linger; 4=moderately high sweetness linger; 5=high sweetness linger; conditions: for Sweetness Linger rating (defined for the protocol): scale anchors: sucrose, 500 ppm REBA control sample; for Sweetness linger: scale 0-5
Description: In a particular embodiment, a panel of assessors is used to measure the reduction of sweetness linger. Briefly described, a panel of assessors (generally 8 to 12 individuals) is trained to evaluate sweetness perception and measure sweetness at several time points from when the sample is initially taken into the mouth until 3 minutes after it has been expectorated. […] A decrease in score for a time point measured after the sample has cleared the mouth indicates there has been a reduction in sweetness perception.
The panel of assessors may be trained using procedures well known to those of ordinary skill in the art. In a particular embodiment, the panel of assessors may be trained using the Spectrum™ Descriptive Analysis Method (Meilgaard et al, Sensory Evaluation Techniques, 3rd edition Chapter 11). Desirably, the focus of training should be the recognition of and the measure of the basic tastes; specifically, sweet. In order to ensure accuracy and reproducibility of results, each assessor should repeat the measure of the reduction of sweetness linger about three to about five times per sample, taking at least a five minute break between each repetition and/or sample and rinsing well with water to clear the mouth.
Generally, the method of measuring sweetness comprises taking a 10 mL sample into the mouth, holding the sample in the mouth for 5 seconds and gently swirling the sample in the mouth, rating the sweetness intensity perceived at 5 seconds, expectorating the sample (without swallowing following expectorating the sample), rinsing with one mouthful of water (e.g., vigorously moving water in mouth as if with mouth wash) and expectorating the rinse water, rating the sweetness intensity perceived immediately upon expectorating the rinse water, waiting 45 seconds and, while wating those 45 seconds, identifying the time of maximum perceived sweetness intensity and rating the sweetness intensity at that time (moving the mouth normally and swallowing as needed), rating the sweetness intensity after another […], rating the sweetness intensity after another 60 seconds (cumulative 120 seconds after rinse), and rating the sweetness intensity after still another 60 seconds (cumulative 180 seconds after rinse), Between samples take a 5 minute break, rinsing well with water to clear the mouth.
Sensory evaluation of the samples prepared in Example Set G was carried out under the following protocol, similar to that described hereinabove. In this test protocol, none of the samples were swallowed. […] Immediately upon sensing maximal sweetness, the sample was expectorated, the mouth was rinsed with water and the rate of sweetness decay (“Sweetness Linger”) was measured, where attention was focused on the sweetness 3-4 min after the water rinse. […]

[4] = Sweetness stated as sucrose equivalent; assay type: in vivo

Rate of dissolution in H2O at 25° C. [1] | Compound | Sweetness Linger rating (defined for the protocol) [3] | further results
< 30 %/5 minutes | C=C1C[C@@]23CC[C@H]4[C@@](C)(CCC[C@@]4(C)C(=O)O[C@@H]4O[C@H](CO)[C@@H](O)[C@H](O)[C@H]4O)[C@@H]2CC[C@]1(O[C@@H]1O[C@H](CO)[C@@H](O)[C@H](O[C@@H]2O[C@H](CO)[C@@H](O)[C@H](O)[C@H]2O)[C@H]1O[C@@H]1O[C@H](CO)[C@@H](O)[C@H](O)[C@H]1O)C3 [Form 2, rebaudioside A] |  | 
< 0.2 %/60 minutes | C=C1C[C@@]23CC[C@H]4[C@@](C)(CCC[C@@]4(C)C(=O)O[C@@H]4O[C@H](CO)[C@@H](O)[C@H](O)[C@H]4O)[C@@H]2CC[C@]1(O[C@@H]1O[C@H](CO)[C@@H](O)[C@H](O[C@@H]2O[C@H](CO)[C@@H](O)[C@H](O)[C@H]2O)[C@H]1O[C@@H]1O[C@H](CO)[C@@H](O)[C@H](O)[C@H]1O)C3 [Form 1, rebaudioside A] |  | 

More lines, now with the values behind:

Compound | Rate of dissolution in H2O at 25° C. [1] | Sweetness Linger rating (defined for the protocol) [3] | further results
C=C1C[C@@]23CC[C@H]4[C@@](C)(CCC[C@@]4(C)C(=O)O[C@@H]4O[C@H](CO)[C@@H](O)[C@H](O)[C@H]4O)[C@@H]2CC[C@]1(O[C@@H]1O[C@H](CO)[C@@H](O)[C@H](O[C@@H]2O[C@H](CO)[C@@H](O)[C@H](O)[C@H]2O)[C@H]1O[C@@H]1O[C@H](CO)[C@@H](O)[C@H](O)[C@H]1O)C3 [Form 4, rebaudioside A] | > 35 %/5 minutes |  | Solubility in water at room temperature [2]: > 35,0%
OC[C@H]1O[C@@](CO)(O[C@H]2O[C@H](CO)[C@@H](O)[C@H](O)[C@H]2O)[C@@H](O)[C@@H]1O [sucrose] |  | 0 | 
C=C1C[C@@]23CC[C@H]4[C@@](C)(CCC[C@@]4(C)C(=O)O[C@@H]4O[C@H](CO)[C@@H](O)[C@H](O)[C@H]4O)[C@@H]2CC[C@]1(O[C@@H]1O[C@H](CO)[C@@H](O)[C@H](O[C@@H]2O[C@H](CO)[C@@H](O)[C@H](O)[C@H]2O)[C@H]1O[C@@H]1O[C@H](CO)[C@@H](O)[C@H](O)[C@H]1O)C3 [REBA, rebaudioside A] |  | 5 | Sweetness linger ([3]; Example Set G: 400 ppm REBA in citric acid/potassium citrate composition equivalent to diet lemon-lime beverage, with additive, sugar control 8 g in 100 ml citrate buffer): 5; Sweetness linger ([3]; Example Set H: 500 ppm REBA (H41: 360 ppm) in carbon-treated water, phosphoric acid (75%) to pH 2.4-2.5, with additive, sugar control 10 g in 100 ml): 5; Sweetness equivalent to sucrose ([4]; 180 ppm rebaudioside A in beverage diluted 1:1 with rebaudioside A/citrate composition): 5 % sucrose; Sweetness equivalent to sucrose ([4]; 400 ppm REBA in citric acid/potassium citrate composition): 8 g sucrose
C=C1C[C@@]23CC[C@H]4[C@@](C)(CCC[C@@]4(C)C(=O)O[C@@H]4O[C@H](CO)[C@@H](O)[C@H](O)[C@H]4O)[C@@H]2CC[C@]1(O[C@@H]1O[C@H](CO)[C@@H](O)[C@H](O[C@@H]2O[C@H](CO)[C@@H](O)[C@H](O)[C@H]2O)[C@H]1O[C@@H]1O[C@H](CO)[C@@H](O)[C@H](O)[C@H]1O)C3 [Form 3, rebaudioside A] | > 30 %/5 minutes |  | 

Source: patent US20070116839A1, “High-Potency Sweetener Composition With C-Reactive Protein Reducing Substance and Compositions Sweetened Therewith” (THE COCA-COLA COMPANY, priority 2005, published 2007)
